Patent US20250171447A1, “ADENOSINE RECEPTOR ANTAGONISTS, PHARMACEUTICAL COMPOSITIONS AND THEIR USE THEREOF” (Merck Sharp & Dohme LLC, priority 2022, published 2025)
pIC50: −log10 of the molar value.

What follows are molecules tested against human A2A adenosine receptor (Homo sapiens (Human), UniProt P29274) (assay: A2A receptor affinity binding assay (radioligand filtration binding or SPA, [3H]SCH58261)). Conditions: membranes from HEK293 or CHO cells expressing human A2A; Method (A) filtration or Method (B) SPA.
human A2A adenosine receptor, sequence (P29274 whole entry): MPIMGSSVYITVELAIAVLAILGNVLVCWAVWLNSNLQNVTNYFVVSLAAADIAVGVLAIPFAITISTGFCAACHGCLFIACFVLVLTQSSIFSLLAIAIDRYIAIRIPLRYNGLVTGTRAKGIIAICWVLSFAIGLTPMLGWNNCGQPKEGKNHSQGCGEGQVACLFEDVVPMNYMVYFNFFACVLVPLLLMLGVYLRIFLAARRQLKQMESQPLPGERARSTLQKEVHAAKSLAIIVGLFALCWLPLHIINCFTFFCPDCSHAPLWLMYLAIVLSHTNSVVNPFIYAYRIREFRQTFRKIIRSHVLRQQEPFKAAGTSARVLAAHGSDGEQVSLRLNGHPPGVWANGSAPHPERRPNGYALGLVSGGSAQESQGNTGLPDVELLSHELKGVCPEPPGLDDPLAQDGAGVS

Row | pIC50 | Structure (SMILES)
1 | 8.52 | COc1cc(F)cc2c1nc(N)n1nc([C@H]3C[C@@H](c4ccccc4C(C)(C)O)C3)nc21 (single isomer, unassigned) [Ex-52]
2 | 9.52 | COc1cccc2c1nc(N)n1nc([C@H]3C[C@@H](c4ccc(C(N)C(F)(F)F)cc4)C3)nc21 (single isomer, unassigned) [Ex-75, 2-{cis-3-[4-(1-amino-2,2,2-trifluoroethyl)phenyl]cyclobutyl}-7-methoxy[1,2,4]triazolo[1,5-c]quinazolin-5-amine]
3 | 9.30 | COc1cccc2c1nc(N)n1nc([C@H]3C[C@@H](c4ccc(C(N)C(F)(F)F)cc4)C3)nc21 (single isomer, unassigned) [Ex-76, 2-{cis-3-[4-(1-amino-2,2,2-trifluoroethyl)phenyl]cyclobutyl}-7-methoxy[1,2,4]triazolo[1,5-c]quinazolin-5-amine]
4 | 8.18 | COc1cccc2c1nc(N)n1nc([C@H]3C[C@@H](c4ncc(C(C)(C)N)cc4Cl)C3)nc21 (single isomer, unassigned) [Ex-88, 2-{cis-3-[5-(2-aminopropan-2-yl)-3-chloropyridin-2-yl]cyclobutyl}-7-methoxy[1,2,4]triazolo[1,5-c]quinazolin-5-amine]
5 | 8.64 | COc1cccc2c1nc(N)n1nc([C@H]3C[C@H](c4ccc([C@@H](N)C(F)(F)F)cn4)C3)nc21 (single isomer, unassigned) [Ex-93]
6 | 8.42 | COc1cccc2c1nc(N)n1nc([C@H]3C[C@@H](c4ccc([C@@H](N)C(F)(F)F)cn4)C3)nc21 (single isomer, unassigned) [Ex-94]
7 | 8.59 | COc1cccc2c1nc(N)n1nc([C@H]3C[C@H](c4ccc([C@H](N)C(F)F)cn4)C3)nc21 (single isomer, unassigned) [Ex-104]
8 | 8.57 | COc1cccc2c1nc(N)n1nc([C@H]3C[C@@H](c4ccc([C@H](N)C(F)F)cn4)C3)nc21 (single isomer, unassigned) [Ex-105]
9 | 8.39 | COc1cccc2c1nc(N)n1nc([C@H]3C[C@H](c4ccc([C@@H](N)C(F)F)cn4)C3)nc21 (single isomer, unassigned) [Ex-106]
10 | 8.09 | COc1cccc2c1nc(N)n1nc([C@H]3C[C@@H](c4ccc([C@@H](N)C(F)F)cn4)C3)nc21 (single isomer, unassigned) [Ex-107]
11 | 7.97 | COc1cccc2c1nc(N)n1nc([C@H]3C[C@H](c4ncc5c(n4)CNC5)C3)nc21 (single isomer, unassigned) [Ex-108, 2-((trans)-3-(6,7-dihydro-5H-pyrrolo[3,4-d]pyrimidin-2-yl)cyclobutyl)-7-methoxy-[1,2,4]triazolo[1,5-c]quinazolin-5-amine]
12 | 7.06 | COc1cccc2c1nc(N)n1nc([C@H]3C[C@@H](c4ncc5c(n4)CNC5)C3)nc21 (single isomer, unassigned) [Ex-109, 2-[(cis)-3-(6,7-dihydro-5H-pyrrolo[3,4-d]pyrimidin-2-yl)cyclobutyl]-7-methoxy[1,2,4]triazolo[1,5-c]quinazolin-5-amine]
13 | 7.78 | COc1cccc2c1nc(N)n1nc([C@H]3C[C@H](c4ncc5c(n4)CCNC5)C3)nc21 (single isomer, unassigned) [Ex-110, 7-methoxy-2-[(trans)-3-(5,6,7,8-tetrahydropyrido[4,3-d]pyrimidin-2-yl)cyclobutyl][1,2,4]triazolo[1,5-c]quinazolin-5-amine]
14 | 6.93 | COc1cccc2c1nc(N)n1nc([C@H]3C[C@@H](c4ncc5c(n4)CCNC5)C3)nc21 (single isomer, unassigned) [Ex-111, 7-methoxy-2-[(cis)-3-(5,6,7,8-tetrahydropyrido[4,3-d]pyrimidin-2-yl)cyclobutyl][1,2,4]triazolo[1,5-c]quinazolin-5-amine]
15 | 8.09 | COc1cccc2c1nc(N)n1nc([C@H]3C[C@H](c4ccc(C(C)(C)N)c(C)n4)C3)nc21 (single isomer, unassigned) [Ex-117, 2-{trans-3-[5-(2-aminopropan-2-yl)-6-methylpyridin-2-yl]cyclobutyl}-7-methoxy[1,2,4]triazolo[1,5-c]quinazolin-5-amine]
16 | 8.32 | COc1cccc2c1nc(N)n1nc([C@H]3C[C@@H](c4ccc(C(C)(C)N)c(C)n4)C3)nc21 (single isomer, unassigned) [Ex-118, 2-{cis-3-[5-(2-aminopropan-2-yl)-6-methylpyridin-2-yl]cyclobutyl}-7-methoxy[1,2,4]triazolo[1,5-c]quinazolin-5-amine]
17 | 8.82 | COc1cc(F)cc2c1nc(N)n1nc(C3CC3C(C)(C)O)nc21 (centres unmarked) [Ex-28, 2-(2-(5-amino-9-fluoro-7-methoxy-[1,2,4]triazolo[1,5-c]quinazolin-2-yl)cyclopropyl)propan-2-ol]

Row | pIC50 | Structure (SMILES)
18 | 9.22 | COc1cccc2c1nc(N)n1nc([C@H]3C[C@@H](c4ccc(C(C)(C)O)cc4)C3)nc21 [Ex-42, 2-(4-((1s,3s)-3-(5-amino-7-methoxy-[1,2,4]triazolo[1,5-c]quinazolin-2-yl)cyclobutyl)phenyl)propan-2-ol]
19 | 9.00 | COc1cc(F)cc2c1nc(N)n1nc([C@H]3C[C@@H](c4ccc(C(C)(C)O)cc4)C3)nc21 [Ex-50, 2-{4-[cis-3-(5-amino-9-fluoro-7-methoxy [1,2,4]triazolo [1,5-c]quinazolin-2-yl)cyclobutyl]phenyl} propan-2-ol]
20 | 7.74 | COc1cccc2c1nc(N)n1nc([C@H]3C[C@@H](c4ccc(C(C)N)cn4)C3)nc21 (stereo partly drawn) [Ex-71, 2-{cis-3-[5-(1-aminoethyl)pyridin-2-yl]cyclobutyl}-7-methoxy[1,2,4]triazolo[1,5-c]quinazolin-5-amine]
21 | 8.10 | COc1cccc2c1nc(N)n1nc([C@H]3C[C@H](c4ccc(C(C)N)cn4)C3)nc21 (stereo partly drawn) [Ex-72, 2-{trans-3-[5-(1-aminoethyl)pyridin-2-yl]cyclobutyl}-7-methoxy[1,2,4]triazolo[1,5-c]quinazolin-5-amine]
22 | 8.32 | COc1cccc2c1nc(N)n1nc([C@H]3C[C@H](c4ccc(C(N)C(F)F)cn4)C3)nc21 (stereo partly drawn) [Ex-73, 2-{trans-3-[5-(1-amino-2,2-difluoroethyl)pyridin-2-yl]cyclobutyl}-7-methoxy[1,2,4]triazolo[1,5-c]quinazolin-5-amine]
23 | 8.40 | COc1cccc2c1nc(N)n1nc([C@H]3C[C@@H](c4ccc(C(N)C(F)F)cn4)C3)nc21 (stereo partly drawn) [Ex-74, 2-{cis-3-[5-(1-amino-2,2-difluoroethyl)pyridin-2-yl]cyclobutyl}-7-methoxy[1,2,4]triazolo[1,5-c]quinazolin-5-amine]
24 | 8.89 | COc1cccc2c1nc(N)n1nc([C@H]3C[C@H](c4ccc([C@H](N)C(F)(F)F)cn4)C3)nc21 [Ex-77, 2-(trans-3-{5-[(1S)-1-amino-2,2,2-trifluoroethyl]pyridin-2-yl}cyclobutyl)-7-methoxy[1,2,4]triazolo[1,5-c]quinazolin-5-amine]
25 | 8.72 | COc1cccc2c1nc(N)n1nc([C@H]3C[C@@H](c4ccc([C@H](N)C(F)(F)F)cn4)C3)nc21 [Ex-78, 2-(cis-3-{5-[(1S)-1-amino-2,2,2-trifluoroethyl]pyridin-2-yl}cyclobutyl)-7-methoxy[1,2,4]triazolo[1,5-c]quinazolin-5-amine]
26 | 8.57 | COc1cccc2c1nc(N)n1nc([C@H]3C[C@H](c4ccc(C(N)C(F)(F)F)cc4)C3)nc21 (stereo partly drawn) [Ex-79, 2-{trans-3-[4-(1-amino-2,2,2-trifluoroethyl)phenyl]cyclobutyl}-7-methoxy[1,2,4]triazolo[1,5-c]quinazolin-5-amine]
27 | 8.35 | COc1cccc2c1nc(N)n1nc([C@H]3C[C@@H](c4cc(C)c(C(C)(C)N)cn4)C3)nc21 [Ex-80, 2-{cis-3-[5-(2-aminopropan-2-yl)-4-methylpyridin-2-yl]cyclobutyl}-7-methoxy[1,2,4]triazolo[1,5-c]quinazolin-5-amine]
28 | 8.32 | COc1cccc2c1nc(N)n1nc([C@H]3C[C@H](c4cc(C)c(C(C)(C)N)cn4)C3)nc21 [Ex-81, 2-{trans-3-[5-(2-aminopropan-2-yl)-4-methylpyridin-2-yl]cyclobutyl}-7-methoxy[1,2,4]triazolo[1,5-c]quinazolin-5-amine]
29 | 7.90 | COc1cccc2c1nc(N)n1nc([C@H]3C[C@@H](c4ncc(C(C)(C)N)cc4F)C3)nc21 [Ex-86, 2-{cis-3-[5-(2-aminopropan-2-yl)-3-fluoropyridin-2-yl]cyclobutyl}-7-methoxy[1,2,4]triazolo[1,5-c]quinazolin-5-amine]
30 | 7.56 | COc1cccc2c1nc(N)n1nc([C@H]3C[C@@H](c4ncc(C(C)(C)N)nc4C)C3)nc21 [Ex-89, 2-((1s,3s)-3-(5-(2-aminopropan-2-yl)-3-methylpyrazin-2-yl)cyclobutyl)-7-methoxy-[1,2,4]triazolo[1,5-c]quinazolin-5-amine]
31 | 8.96 | COc1cccc2c1nc(N)n1nc([C@H]3C[C@@H](c4ccc(C(C)(N)C(F)F)nc4)C3)nc21 (some centres unmarked) [Ex-91, 2-{(1s,3s)-3-[6-(2-amino-1,1-difluoropropan-2-yl)pyridin-3-yl]cyclobutyl}-7-methoxy[1,2,4]triazolo[1,5-c]quinazolin-5-amine]
32 | 7.85 | COc1cccc2c1nc(N)n1nc([C@H]3C[C@H](c4ccc(C(C)(N)C(F)F)nc4)C3)nc21 (some centres unmarked) [Ex-92, 2-{(1r,3r)-3-[6-(2-amino-1,1-difluoropropan-2-yl)pyridin-3-yl]cyclobutyl}-7-methoxy[1,2,4]triazolo[1,5-c]quinazolin-5-amine]
33 | 8.54 | COc1cccc2c1nc(N)n1nc([C@H]3C[C@@H](c4ccc([C@@H](N)C(F)(F)F)nc4)C3)nc21 [Ex-95, 2-[(1s,3s)-3-{6-[(1R)-1-amino-2,2,2-trifluoroethyl]pyridin-3-yl}cyclobutyl]-7-methoxy[1,2,4]triazolo[1,5-c]quinazolin-5-amine]
34 | 9.52 | COc1cccc2c1nc(N)n1nc([C@H]3C[C@@H](c4ccc(CN5CCNCC5)cc4)C3)nc21 [Ex-97, 7-methoxy-2-(cis-3-{4-[(piperazin-1-yl)methyl]phenyl}cyclobutyl)[1,2,4]triazolo[1,5-c]quinazolin-5-amine]

Row | Structure (SMILES) | pIC50
35 | COc1cccc2c1nc(N)n1nc(C3CC(c4ccc([C@@H](N)C(F)(F)F)nc4)C3)nc21 (stereo partly drawn) [Ex-96, 2-[(1r,3r)-3-{6-[(1R)-1-amino-2,2,2-trifluoroethyl]pyridin-3-yl}cyclobutyl]-7-methoxy[1,2,4]triazolo[1,5-c]quinazolin-5-amine] | 7.85
